{"source": "paper PMC5811606", "about": "“Characterization of ^111In-labeled Glucose-Dependent Insulinotropic Polypeptide as a Radiotracer for Neuroendocrine Tumors” (Scientific Reports, 2018)", "assay": "Peptide dose escalation study, BHK-GIPR tumor mice", "assay_type": "in vivo, BALB/c nude mice", "details": "female, mouse, iv, total radioactivity, BHK-GIPR tumor BALB/c nude mice, i.v., 4 h p.i., mean n=5", "description": "All animal experiments were approved by the Animal Welfare Body of the Radboud University, Nijmegen, The Netherlands and carried out in accordance with their guidelines. Six to eight weeks old, female BALB/c nude mice and C3H mice were purchased from Janvier labs (Le Genest Saint Isle, France). For all in vivo experiments, 6-8 weeks old female BALB/c nude mice were injected subcutaneously in the right shoulder with 0.2 ml of a 2.5 × 10^7 cells/ml suspension of BHK-GIPR transfected cells or with 0.2 ml of a 2.5 × 10^7 cells/ml suspension of NES2Y cells mixed with matrigel (2:1) in the right shoulder. When the tumor reached a diameter of 2-5 mm, mice were randomly divided in groups.\nTo determine the optimal peptide dose of [Lys^37(DTPA)]N-acetyl-GIP1-42, BHK-GIPR transfected tumor bearing BALB/c nude mice (n = 5/group) were injected intravenously with approximately 3 MBq [Lys^37(^111In-DTPA)]N-acetyl-GIP1-42 (0.05 µg) in the tail vein and were co-injected with escalating amounts of unlabeled [Lys^37(DTPA)]N-acetyl-GIP1-42 (0.05 µg – 1.95 µg), resulting in final peptide doses ranging from 0.1 to 2 µg/mouse (0.02 – 0.4 nmol/mouse) (5 groups, n = 5/group). Four hours after injection, mice were euthanized by CO2/O2 suffocation and tumors and other relevant tissues (heart, muscle, lung, spleen, pancreas, kidney, liver, stomach and duodenum) were dissected, weighed and measured in a well type gamma counter. The percentage injected dose per gram of tissue (%ID/g) was determined for each tissue.", "note": "Where two headings read alike, the source gives them in different places.", "data": [{"smiles": "CC[C@H](C)[C@H](NC(=O)[C@H](CO)NC(=O)[C@H](Cc1ccc(O)cc1)NC(=O)[C@H](CC(=O)O)NC(=O)[C@H](CO)NC(=O)[C@@H](NC(=O)[C@H](Cc1ccccc1)NC(=O)[C@@H](NC(=O)CNC(=O)[C@H](CCC(=O)O)NC(=O)[C@H](C)NC(=O)[C@H](Cc1ccc(O)cc1)NC(C)=O)[C@@H](C)O)[C@@H](C)CC)C(=O)N[C@@H](C)C(=O)N[C@@H](CCSC)C(=O)N[C@@H](CC(=O)O)C(=O)N[C@@H](CCCCN)C(=O)N[C@H](C(=O)N[C@@H](Cc1c[nH]cn1)C(=O)N[C@@H](CCC(N)=O)C(=O)N[C@@H](CCC(N)=O)C(=O)N[C@@H](CC(=O)O)C(=O)N[C@@H](Cc1ccccc1)C(=O)N[C@H](C(=O)N[C@@H](CC(N)=O)C(=O)N[C@@H](Cc1c[nH]c2ccccc12)C(=O)N[C@@H](CC(C)C)C(=O)N[C@@H](CC(C)C)C(=O)N[C@@H](C)C(=O)N[C@@H](CCC(N)=O)C(=O)N[C@@H](CCCCN)C(=O)NCC(=O)N[C@@H](CCCCN)C(=O)N[C@@H](CCCCN)C(=O)N[C@@H](CC(N)=O)C(=O)N[C@@H](CC(=O)O)C(=O)N[C@@H](Cc1c[nH]c2ccccc12)C(=O)N[C@@H](CCCCNC(=O)CN(CCN(CCN(CC(=O)O)CC(=O)O)CC(=O)O)CC(=O)O)C(=O)N[C@@H](Cc1c[nH]cn1)C(=O)N[C@@H](CC(N)=O)C(=O)N[C@H](C(=O)N[C@H](C(=O)N[C@@H](CCC(N)=O)C(=O)O)[C@@H](C)O)[C@@H](C)CC)C(C)C)[C@@H](C)CC", "note": "[[Lys^37(^111In-DTPA)]N-acetyl-GIP1-42, metal not drawn]", "values": [{"measurement": "tissue uptake at 4 h", "setting": "pancreas, 0.1 ug/mouse, peptide dose 0.1 µg, read-out: Pancreas uptake", "result": 0.169, "unit": "%ID/g"}, {"measurement": "tissue uptake at 4 h", "setting": "pancreas, 0.2 ug/mouse, peptide dose 0.2 µg, read-out: Pancreas uptake", "result": 0.234, "unit": "%ID/g"}, {"measurement": "tissue uptake at 4 h", "setting": "pancreas, 0.5 ug/mouse, peptide dose 0.5 µg, read-out: Pancreas uptake", "result": 0.199, "unit": "%ID/g"}, {"measurement": "tissue uptake at 4 h", "setting": "pancreas, 1 ug/mouse, peptide dose 1 µg, read-out: Pancreas uptake", "result": 0.257, "unit": "%ID/g"}, {"measurement": "tissue uptake at 4 h", "setting": "pancreas, 2 ug/mouse, peptide dose 2 µg, read-out: Pancreas uptake", "result": 0.213, "unit": "%ID/g"}, {"measurement": "tissue uptake at 4 h", "setting": "spleen, 0.1 ug, peptide dose 0.1 µg, read-out: Spleen uptake", "result": 0.648, "unit": "%ID/g"}, {"measurement": "tissue uptake at 4 h", "setting": "spleen, 0.2 ug, peptide dose 0.2 µg, read-out: Spleen uptake", "result": 0.692, "unit": "%ID/g"}, {"measurement": "tissue uptake at 4 h", "setting": "spleen, 0.5 ug, peptide dose 0.5 µg, read-out: Spleen uptake", "result": 0.594, "unit": "%ID/g"}, {"measurement": "tissue uptake at 4 h", "setting": "spleen, 1 ug, peptide dose 1 µg, read-out: Spleen uptake", "result": 0.781, "unit": "%ID/g"}, {"measurement": "tissue uptake at 4 h", "setting": "spleen, 2 ug, peptide dose 2 µg, read-out: Spleen uptake", "result": 0.713, "unit": "%ID/g"}, {"measurement": "tissue uptake at 4 h", "setting": "stomach, 0.1 ug/mouse, peptide dose 0.1 µg, read-out: Stomach uptake", "result": 0.41, "unit": "%ID/g"}, {"measurement": "tissue uptake at 4 h", "setting": "stomach, 0.2 ug/mouse, peptide dose 0.2 µg, read-out: Stomach uptake", "result": 0.418, "unit": "%ID/g"}, {"measurement": "tissue uptake at 4 h", "setting": "stomach, 0.5 ug/mouse, peptide dose 0.5 µg, read-out: Stomach uptake", "result": 0.411, "unit": "%ID/g"}, {"measurement": "tissue uptake at 4 h", "setting": "stomach, 1 ug/mouse, peptide dose 1 µg, read-out: Stomach uptake", "result": 0.527, "unit": "%ID/g"}, {"measurement": "tissue uptake at 4 h", "setting": "stomach, 2 ug/mouse, peptide dose 2 µg, read-out: Stomach uptake", "result": 0.437, "unit": "%ID/g"}, {"measurement": "tissue to tissue ratio at 4 h", "setting": "tumor/blood, 2 ug/mouse, peptide dose 2 µg, read-out: Tumor/Blood", "result": 38}, {"measurement": "tissue to tissue ratio at 4 h", "setting": "tumor/heart, 0.1 ug/mouse, peptide dose 0.1 µg, read-out: Tumor/Heart", "result": 35.6}, {"measurement": "tissue to tissue ratio at 4 h", "setting": "tumor/heart, 0.2 ug/mouse, peptide dose 0.2 µg, read-out: Tumor/Heart", "result": 33.1}, {"measurement": "tissue to tissue ratio at 4 h", "setting": "tumor/heart, 0.5 ug/mouse, peptide dose 0.5 µg, read-out: Tumor/Heart", "result": 14.6}, {"measurement": "tissue to tissue ratio at 4 h", "setting": "tumor/heart, 1 ug/mouse, peptide dose 1 µg, read-out: Tumor/Heart", "result": 16.4}, {"measurement": "tissue to tissue ratio at 4 h", "setting": "tumor/heart, 2 ug/mouse, peptide dose 2 µg, read-out: Tumor/Heart", "result": 11.2}, {"measurement": "tissue to tissue ratio at 4 h", "setting": "tumor/kidney, 0.1 ug/mouse, peptide dose 0.1 µg, read-out: Tumor/Kidney", "result": 0.02}, {"measurement": "tissue to tissue ratio at 4 h", "setting": "tumor/kidney, 0.2 ug/mouse, peptide dose 0.2 µg, read-out: Tumor/Kidney", "result": 0.019}, {"measurement": "tissue to tissue ratio at 4 h", "setting": "tumor/kidney, 0.5 ug/mouse, peptide dose 0.5 µg, read-out: Tumor/Kidney", "result": 0.011}, {"measurement": "tissue to tissue ratio at 4 h", "setting": "tumor/kidney, 1 ug/mouse, peptide dose 1 µg, read-out: Tumor/Kidney", "result": 0.01}, {"measurement": "tissue to tissue ratio at 4 h", "setting": "tumor/kidney, 2 ug/mouse, peptide dose 2 µg, read-out: Tumor/Kidney", "result": 0.008}, {"measurement": "tissue to tissue ratio at 4 h", "setting": "tumor/lung, 0.1 ug/mouse, peptide dose 0.1 µg, read-out: Tumor/Lung", "result": 13}, {"measurement": "tissue to tissue ratio at 4 h", "setting": "tumor/lung, 0.2 ug/mouse, peptide dose 0.2 µg, read-out: Tumor/Lung", "result": 10}, {"measurement": "tissue to tissue ratio at 4 h", "setting": "tumor/lung, 0.5 ug/mouse, peptide dose 0.5 µg, read-out: Tumor/Lung", "result": 4.18}, {"measurement": "tissue to tissue ratio at 4 h", "setting": "tumor/lung, 1 ug/mouse, peptide dose 1 µg, read-out: Tumor/Lung", "result": 4.81}, {"measurement": "tissue to tissue ratio at 4 h", "setting": "tumor/lung, 2 ug/mouse, peptide dose 2 µg, read-out: Tumor/Lung", "result": 3.58}, {"measurement": "tissue to tissue ratio at 4 h", "setting": "tumor/muscle, 0.1 ug/mouse, peptide dose 0.1 µg, read-out: Tumor/Muscle", "result": 33.7}, {"measurement": "tissue to tissue ratio at 4 h", "setting": "tumor/muscle, 0.2 ug/mouse, peptide dose 0.2 µg, read-out: Tumor/Muscle", "result": 41.1}, {"measurement": "tissue to tissue ratio at 4 h", "setting": "tumor/muscle, 0.5 ug/mouse, peptide dose 0.5 µg, read-out: Tumor/Muscle", "result": 19.1}, {"measurement": "tissue to tissue ratio at 4 h", "setting": "tumor/muscle, 1 ug/mouse, peptide dose 1 µg, read-out: Tumor/Muscle", "result": 20.9}, {"measurement": "tissue to tissue ratio at 4 h", "setting": "tumor/muscle, 2 ug/mouse, peptide dose 2 µg, read-out: Tumor/Muscle", "result": 12.2}]}]}
